In patent US20250059201A1, “CAMPTOTHECIN COMPOUND AND CONJUGATE THEREOF” (priority 2021, published 2025):
Like-named read-outs stand apart in the source and are kept apart here.

Experiments:
Type in all cases: cell-based
[1] = tested on: MCF-7; assay: Proliferation-inhibiting effect on tumor cells (SRB or MTT assay); conditions: Homo sapiens, MCF7, 144 h
Experimental: (§1) For cells growing by adherence, SRB assay was used to detect effect of antibody-drug conjugates or camptothecins on the proliferation of tumor cells in vitro cultured. A certain number of cells in exponential growth phase were inoculated in 96-well cell culture plates, and when the cells grew by adherence overnight, antibody drug conjugates or camptothecins of different concentrations were added into the cells. 144 hours later, the cells were fixed with trichloroacetic acid, and then stained with SRB (prepared in 1% glacial acetic acid at a concentration of 4 mg/mL). 10 mM Tris solution was added into each well to solubilize the bound SRB. OD values at 510 nm were read on a microplate reader.
(§2) Inhibition (%)=([…] of control well−OD value of dosed well)/OD value of control well×100%
(§3) For cells growing in suspension, MTT assay was used to detect effect of antibody-drug conjugates or camptothecins on the proliferation of tumor cells in vitro cultured. A certain number of cells in exponential growth phase were inoculated in 96-well cell culture plates, and when the cells grew in suspension overnight, antibody-drug conjugates or camptothecins of different concentrations were added into the cells. 144 hours later, MTT was added to each well of the plates, and the incubation was continued for 4 hours at 37° C. in a 5% CO2 saturated humidity incubator. Next, 100 μL of SDS-isobutanol-HCl solution was added into each well of the plates, and OD values at 570 nm and 690 nm were read on a microplate reader.
(§4) Half maximal inhibitory concentration (IC50) was calculated from the inhibition (%) at those different concentrations using the software Graphpad Prism 8.0. The experiment was repeated once and the data was expressed as mean±SD.

[2] = tested on: MDA-MB-468; assay: as above; conditions: Homo sapiens, MDA-MB-468, 144 h, read-out: IC50 (nM) Mean ± SD
Experimental: as §1, §2, §3, §4

[3] = tested on: MDA-MB-231/TROP2; assay: as above; conditions: Homo sapiens, MDA-MB-231, 144 h
Experimental: as §1, §2, §3, §4

[4] = tested on: NCI-N87; assay: as above; conditions: Homo sapiens, NCI-N87, 144 h
Experimental: as §1, §2, §3, §4

[5] = tested on: MDA-MB-231; assay: as above; conditions: Homo sapiens, MDA-MB-231, 144 h
Experimental: as §1, §2, §3, §4

[6] = tested on: HT-29; assay: as above; conditions: Homo sapiens, HT-29, 144 h
Experimental: as §1, §2, §3, §4

[7] = tested on: Calu-3; assay: as above; conditions: Homo sapiens, Calu-3, 144 h
Experimental: as §1, §2, §3, §4

[8] = tested on: BT-20; assay: as above; conditions: Homo sapiens, BT-20, 144 h
Experimental: as §1, §2, §3, §4

[9] = tested on: HT1376; assay: as above; conditions: Homo sapiens, HT-1376, 144 h
Experimental: as §1, §2, §3, §4

[10] = tested on: BxPC-3; assay: as above; conditions: Homo sapiens, BXPC-3, 144 h
Experimental: as §1, §2, §3, §4

[11] = tested on: Colo 205; assay: as above; conditions: Homo sapiens, COLO 205, 144 h
Experimental: as §1, §2, §3, §4

[12] = tested on: BT-474; assay: as above; conditions: Homo sapiens, BT-474, 144 h
Experimental: as §1, §2, §3, §4

[13] = tested on: BxPC-3 cells; assay: Apoptosis-inducing effect; conditions: BxPC-3, 120 hours, over the tested concentrations
Experimental: BxPC-3 cells (purchased from: ATCC) were inoculated into 6-well plates, and then treated with Trop2-ADC-14 (0.020, 0.196, and 1.963 nM), DS-1062 (0.020, 0.196, and 1.963 nM), the mAb in Trop2-ADC-14 (i.e., antibody h23-12) (6.728 nM) and Compound 3 (0.1, 1, and 10 nM) for 120 hours. Next, the cells were harvested, and Annexin-V-FITC and PI were added thereto, and the cells were stained at room temperature for 15 minutes in dark, and finally were re-suspended in the added 300 μl of 1× binding buffer. Apoptosis was detected with a flow cytometer (BD AccuriTMC6 Plus flow cytometer), for which 1×10^4 cells were gated for each group. Experimental data was analyzed using software BD CSampler™ Plus C6.

[14] = read-out: IC50 (nM) 1st experiment
[15] = read-out: IC50 (nM) 2nd experiment

CC[C@@]1(O)C(=O)OCc2c1cc1n(c2=O)Cc2c-1nc1ccc(N)c3c1c2C(F)(F)CC3 [Compound 3]
IC50 [1, 14]: 0.2 nM
IC50 [1, 15]: 0.1 nM
IC50 ([1]; read-out: IC50 (nM) Mean ± SD): 0.11 ± 0.08 nM
IC50 [2]: 0.16 ± 0.01 nM
IC50 [3, 14]: 0.1 nM
IC50 [3, 15]: 0.1 nM
IC50 ([3]; read-out: IC50 (nM) Mean ± SD): 0.06 ± 0.01 nM
IC50 [4, 14]: 0.4 nM
IC50 [4, 15]: 0.5 nM
IC50 ([4]; read-out: IC50 (nM) Mean ± SD): 0.47 ± 0.07 nM
IC50 [5, 14]: 0.8 nM
IC50 [5, 15]: 0.8 nM
IC50 ([5]; read-out: IC50 (nM) Mean ± SD): 0.69 ± 0.15 nM
IC50 [6, 14]: 0.4 nM
IC50 [6, 15]: 0.4 nM
IC50 ([6]; read-out: IC50 (nM) Mean ± SD): 0.4 ± 0.01 nM
IC50 [7, 14]: 0.4 nM
IC50 [7, 15]: 0.4 nM
IC50 ([7]; read-out: IC50 (nM) Mean ± SD): 0.4 ± 0.02 nM
IC50 [8, 14]: 0.5 nM
IC50 [8, 15]: 0.5 nM
IC50 ([8]; read-out: IC50 (nM) Mean ± SD): 0.53 ± 0.01 nM
IC50 [9, 14]: 1 nM
IC50 [9, 15]: 0.9 nM
IC50 ([9]; read-out: IC50 (nM) Mean ± SD): 0.98 ± 0.08 nM
IC50 [10, 14]: 0.2 nM
IC50 [10, 15]: 0.2 nM
IC50 ([10]; read-out: IC50 (nM) Mean ± SD): 0.17 ± 0.01 nM
IC50 [11, 14]: 0.2 nM
IC50 [11, 15]: 0.2 nM
IC50 ([11]; read-out: IC50 (nM) Mean ± SD): 0.21 ± 0.05 nM
IC50 [12, 14]: 2.3 nM
IC50 [12, 15]: 0.5 nM
IC50 ([12]; read-out: IC50 (nM) Mean ± SD): 1.43 ± 1.25 nM
apoptosis-inducing effect [13]: induced apoptosis of BxPC-3 cells in a concentration-dependent manner
